One block for each compound: values may come before it.
Assays:
[1] = target: dopamine rD3 receptor (Rattus norvegicus, UniProt P19020); settings: ratio of Ki D2L to Ki D3
[2] = system: 6-OHDA lesioned rats; assay: Rotational experiment with 6-OHDA lesioned rats; type: in vivo, rat
[3] = target: dopamine hD3 receptor (Homo sapiens, UniProt P35462); assay: Stimulation of [35S]GTPγS binding, hD3 receptors expressed in CHO cells; type: biochemical; settings: read-out: %Emax, CHO-D3
Sequence of dopamine hD3 receptor (P35462 whole entry): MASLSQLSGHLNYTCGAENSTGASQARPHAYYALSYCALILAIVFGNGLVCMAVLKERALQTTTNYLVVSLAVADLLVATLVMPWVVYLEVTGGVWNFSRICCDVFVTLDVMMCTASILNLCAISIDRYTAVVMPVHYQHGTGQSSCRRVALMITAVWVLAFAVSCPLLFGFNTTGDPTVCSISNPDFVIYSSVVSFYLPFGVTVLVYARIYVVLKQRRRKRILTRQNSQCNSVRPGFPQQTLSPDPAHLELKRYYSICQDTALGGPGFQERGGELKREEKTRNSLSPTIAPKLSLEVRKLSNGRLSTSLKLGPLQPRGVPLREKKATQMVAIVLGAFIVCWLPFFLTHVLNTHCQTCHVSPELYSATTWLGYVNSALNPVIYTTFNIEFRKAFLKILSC

Sequence of dopamine rD3 receptor (P19020 whole entry): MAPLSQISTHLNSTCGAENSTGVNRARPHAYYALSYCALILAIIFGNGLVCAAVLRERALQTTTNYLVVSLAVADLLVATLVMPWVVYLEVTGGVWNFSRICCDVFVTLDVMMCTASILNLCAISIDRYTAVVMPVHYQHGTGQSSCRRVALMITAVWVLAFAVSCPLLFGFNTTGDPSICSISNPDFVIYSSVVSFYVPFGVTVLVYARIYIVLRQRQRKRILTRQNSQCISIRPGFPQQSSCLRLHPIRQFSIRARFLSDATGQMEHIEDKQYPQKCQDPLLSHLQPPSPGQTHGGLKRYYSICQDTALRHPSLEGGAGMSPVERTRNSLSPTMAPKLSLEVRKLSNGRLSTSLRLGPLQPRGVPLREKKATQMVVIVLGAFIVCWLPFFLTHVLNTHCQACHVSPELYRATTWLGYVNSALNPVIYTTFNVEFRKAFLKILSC

D2L/D3 [1]: 15.4
SMILES: CCCN(CCN1CCN(Cc2ccc(O)c3ncccc23)CC1)C1CCc2ccc(O)cc2C1 (centres unmarked) [Compound 12a, 5-((4-(2-((7-hydroxy-1,2,3,4-tetrahydronaphthalen-2-yl)(propyl)amino)ethyl)piperazin-1-yl)methyl) quinolin-8-ol]

D2L/D3 [1]: 11.2
SMILES: CCCN(CCN1CCN(Cc2ccc(O)c3ncccc23)CC1)C1CCc2c(O)cccc2C1 (centres unmarked) [Compound 12b, 5-((4-(2-((5-hydroxy-1,2,3,4-tetrahydronaphthalen-2-yl)(propyl)amino)ethyl)piperazin-1-yl)methyl)quinolin-8-ol]

SMILES: CCCN(CCC)CCc1cccc2c1CC(=O)N2 [Ropinirole]
rotational activity ([2]; 5 µMol/kg): much less rotations with shorter duration of action
Emax [3]: 66.6 ± 8.1%

SMILES: CN1CCc2cccc3c2[C@H]1Cc1ccc(O)c(O)c1-3 [apomorphine]
average rotation (contralateral) ([2]; 0.05 mg/kg, 21 days post lesion, recorded for 30 min, four rats): > 250

Source: PMC2844127 (Journal of medicinal chemistry, 2010)
